{"source": "patent US11931412B2", "about": "“JAK1 inhibitors and uses thereof” (Washington University, priority 2016, dated 2024)", "key": {"AD patients": {"system": "AD patients", "details": "cited from earlier work"}, "MC903-treated WT mice": {"system": "MC903-treated WT mice", "test": "Pharmacologic JAK inhibition in MC903-induced AD-associated itch model", "type": "in vivo, mouse", "description": "(§1) For induction of AD-like inflammation and itch, mice were topically treated once daily with 2 nmol of MC903 (calcipotriol, Tocris Bioscience) for 7 days or 1 nmol of MC903 for 12 days on both ears in 20 μL of ethanol (vehicle) as previously described (Kim et al., 2013a, 2014, Siracusa et al., 2011, 2013b). Ear thickness measurements were performed daily with dial calipers as previously described (Kim et al., 2013a, 2014). At the end of the MC903 treatment, murine ear skin tissues were fixed in 4% paraformaldehyde (PFA) and embedded in paraffin before sectioning and staining with Hematoxylin & Eosin (H&E). Histology score was determined by the following formula using ImageJ analysis software (NIH) as previously described: (total number of lymphocytes per high power field (HPF)+thickness of the epidermis measured in microns from the basement membrane to the top of the stratum corneum) divided by 100 (Kim et al., 2014). All images were captured with a NanoZoomer 2.0-HT System (Hamamatsu). Murine disease and behavioral assessment data (below) were derived from two to three independent experiments. For behavioral assessments, mice were first acclimated to the recording room and behavior chambers at least one day prior to testing. On the day of testing, mice were again acclimated to the recording room and behavior chambers and then video recorded. The video recordings were then manually scored for number of scratching bouts per 30 minute block. One scratching bout was defined as one instance of lifting the hind paw from the floor, scratching, and returning the paw to the floor or placing the paw in the animal's mouth. All behavioral tests were performed on sex- and age-matched adult mice (8-12 weeks old). Stock ruxolitinib (Selleck Chemicals) solutions were prepared in DMSO (Sigma) per the manufacturer's instructions. For systemic treatments, mice treated twice daily with 100 μg ruxolitinib diluted in 100 μl PBS by intraperitoneal (i.p.) injection. For intrathecal (i.t.) ruxolitinib treatments, mice were injected 24 hours before behavioral assays with 10 μg ruxolitinib diluted in 10 μl PBS. Control mice were injected with appropriate vehicle controls (DMSO in PBS) of equivalent volumes."}, "patients with CIP": {"system": "patients with CIP", "test": "NRS itch scoring of CIP patients under treatment"}, "mouse DRG neurons": {"system": "mouse DRG neurons", "test": "Ratiometric calcium imaging of cultured murine DRG neurons", "type": "cell-based", "details": "for responsive neurons as a percentage of total mouse DRG neurons: cytokines 300 nM, histamine 50 μM, responsive = change in fluorescence ratio >10% of baseline; for calcium response of DRG neurons to stimulation: ex vivo stimulation, recombinant murine cytokine 300 nM; for cytokine-responsive neurons that also responded to IL-31 or histamine: serial stimulation with the cytokine, then IL-31 and histamine", "description": "Murine DRG neurons were isolated and cultured using a previously published protocol with slight modification (Malin et al., 2007). Briefly, laminectomies were performed on mice and bilateral DRG were removed. After removal of connective tissues, DRG were transferred to 1 mL Ca^2+/Mg^2+-free Hank's Balanced Salt Solution (HBSS) containing 1 μL saturated NaHCO3, 0.35 mg L-cysteine, and 20 U papain (Worthington) and incubated at 37° C. for 20 min. The suspension was centrifuged, and the supernatant was removed and replaced with 1 mL Ca^2+/Mg^2+-free HBSS containing 3.75 mg collagenase type II (Worthington) and 7.5 mg dispase (Worthington) and incubated at 37° C. for 20 min. After digestion, neurons were gently triturated, pelleted, and then resuspended in Neurobasal-A medium containing 2% B-27 supplement (Gibco), 100 U/mL penicillin plus 100 μg/mL streptomycin (Sigma), 100 ng/mL nerve growth factor (Sigma), and 10% heat-inactivated FBS (Sigma). Neurons were then plated on a 12 mm glass coverslip pre-coated with poly-L-lysine (Sigma) and laminin (Sigma) and cultured under a humidified atmosphere of 5% CO2 at 37° C. for 18-24 hours before use.\nCultured DRG neurons were loaded with 4 μM Fura-2 AM (Life Technologies) in overnight DRG culture medium at 37° C. for 45 minutes. Cells were then washed three times and incubated in calcium imaging buffer (130 mM NaCl, 3 mM KCl, 2.5 mM CaCl2, 0.6 mM MgCl2, 10 mM HEPES, 10 mM glucose, 1.2 mM NaHCO3, pH 7.45) at room temperature for 30 minutes before use. All recombinant murine cytokines (IL-4, IL-5, and IL-13: Peprotech, IL-31: Bristol-Myers Squibb) were used at 300 nM, while histamine (Sigma) and capsaicin (Sigma) were used at 50 μM and 300 nM, respectively. Only sensory neurons that responded to a final challenge of 100 mM KCl were used in analyses. Fluorescence was recorded at 340 nm and 380 nm excitation wavelengths (F340, F380) using an inverted Nikon Ti-E microscope with NIS-Elements imaging software (Nikon Instruments). Fluorescence ratios (F340/F380) were normalized to baseline and used to reflect changes in intracellular Ca^2+ and neuronal activation upon stimulation. […] Data were derived from two to three independent experiments."}, "wild type (WT) mice": {"system": "wild type (WT) mice", "test": "Topical MC903 treatment versus vehicle (AD-like inflammation and itch)", "type": "in vivo, mouse", "details": "daily topical to ears, compared to vehicle (EtOH)", "description": "as §1, with “old).” for “old). Stock ruxolitinib (Selleck Chemicals) solutions were prepared in DMSO (Sigma) per the manufacturer's instructions. For systemic treatments, mice treated twice daily with 100 μg ruxolitinib diluted in 100 μl PBS by intraperitoneal (i.p.) injection. For intrathecal (i.t.) ruxolitinib treatments, mice were injected 24 hours before behavioral assays with 10 μg ruxolitinib diluted in 10 μl PBS. Control mice were injected with appropriate vehicle controls (DMSO in PBS) of equivalent volumes.”"}, "CIP patient (Case 2)": {"system": "CIP patient (Case 2)", "test": "Clinical history of CIP patient Case 2 (prior treatment)", "type": "in vivo, human", "details": "course of oral prednisone prescribed for polymyalgia rheumatica", "description": "This example describes four elderly CIP patients with evidence of marked immune dysregulation after exclusion of other cutaneous and systemic causes of pruritus.\nTABLE 2 Legend: (a) Average and peak Numerical Rating Scale (NRS) itch scores at the time of presentation to our clinic are noted, respectively. (b) A thorough workup was performed to establish the diagnosis of CIP by exclusion of other cutaneous and systemic causes of pruritus, including psychiatric and neurologic conditions, renal failure, biliary dysfunction, thyroid abnormalities, HIV/AIDS, hepatitis B, and hepatitis C. […] (d) Outside of two episodes of septic arthritis arising from knee replacement surgery, the patient had no history of persistent or recurrent infections, autoimmunity, or malignancy."}, "[1]": {"details": "i.p. 100 μg twice daily during MC903 treatment, Day 7"}}, "note": "Entries after “also recorded” stand apart in the source; their conditions may differ.", "data": [{"molecule": "dupilumab: an anti-IL-4Rα monoclonal antibody", "values": [{"measurement": "disease and itch severity in AD patients", "setting": "AD patients; Phase II and III clinical trials", "result": "remarkable improvement"}]}, {"molecule": "N#CC[C@H](C1CCCC1)n1cc(-c2ncnc3[nH]ccc23)cn1", "note": "[ruxolitinib]", "values": [{"measurement": "ear skin thickening", "setting": "MC903-treated WT mice; [1]", "result": "statistically significant, but only slight, reduction"}, {"measurement": "histologic parameters of disease", "setting": "MC903-treated WT mice; [1]", "result": "statistically significant, but only slight, reduction"}, {"measurement": "scratching bouts", "setting": "MC903-treated WT mice; [1]", "result": "significantly reduced"}, {"measurement": "peripheral skin inflammation (ear thickness, histopathology, histology score)", "setting": "MC903-treated WT mice; single intrathecal (i.t.) injection 10 μg", "result": "no effect"}, {"measurement": "scratching bouts", "setting": "MC903-treated WT mice; single intrathecal (i.t.) injection 10 μg, 24 hours before behavioral assay", "result": "marked reduction"}]}, {"molecule": "C[C@@H]1CCN(C(=O)CC#N)C[C@@H]1N(C)c1ncnc2[nH]ccc12", "note": "[tofacitinib]", "values": [{"measurement": "itch symptoms in AD patients", "setting": "AD patients; pilot studies and Phase II clinical trials", "result": "rapid and significant reduction"}, {"measurement": "NRS itch score / itch symptoms", "setting": "patients with CIP; CIP patients (N=5), 5 mg by mouth twice daily, one month", "result": "marked improvement; also recorded: improved significantly; also recorded: dramatic improvement"}, {"measurement": "daily itch scores (NRS), single subject", "setting": "patients with CIP; one CIP subject over 70 days, cyclosporine alone, then switched to JAK inhibitor", "result": "significant improvement"}]}, {"molecule": "NCCc1c[nH]cn1", "note": "[histamine]", "values": [{"measurement": "responsive neurons as a percentage of total mouse DRG neurons", "setting": "mouse DRG neurons", "result": "~25", "unit": "%"}]}, {"molecule": "C=C1/C(=C\\C=C2/CCC[C@]3(C)[C@@H]([C@H](C)/C=C/[C@@H](O)C4CC4)CC[C@@H]23)C[C@@H](O)C[C@@H]1O", "note": "[MC903, calcipotriol]", "values": [{"measurement": "histologic score of inflammation", "setting": "wild type (WT) mice", "result": "higher"}, {"measurement": "itch phenotype by scratching bouts over time", "setting": "wild type (WT) mice", "result": "marked chronic itch phenotype"}, {"measurement": "skin inflammation measured by ear skin thickening and histologic features", "setting": "wild type (WT) mice", "result": "robust skin inflammation"}]}, {"molecule": "C[C@]12C=CC(=O)C=C1CC[C@@H]1[C@@H]2C(=O)C[C@@]2(C)[C@H]1CC[C@]2(O)C(=O)CO", "note": "[prednisone]", "values": [{"measurement": "muscle weakness", "setting": "CIP patient (Case 2)", "result": "improved"}, {"measurement": "pruritus", "setting": "CIP patient (Case 2)", "result": "did not resolve"}]}, {"molecule": "IL-4: recombinant murine IL-4 (Peprotech)", "values": [{"measurement": "responsive neurons as a percentage of total mouse DRG neurons", "setting": "mouse DRG neurons", "result": "4.1±0.5", "unit": "%"}, {"measurement": "calcium response of DRG neurons to stimulation", "setting": "mouse DRG neurons", "result": "rapid rise of intracellular calcium in a subset of neurons"}, {"measurement": "cytokine-responsive neurons that also responded to IL-31 or histamine", "setting": "mouse DRG neurons", "result": 88.9, "unit": "%"}]}, {"molecule": "IL-31: recombinant murine IL-31 (Bristol-Myers Squibb), known cytokine pruritogen (protein, UniProt Q6EAL8 24-163, looked up) Interleukin-31: TCSLSFGAPISKEDLRTTIDLLKQESQDLYNNYSIKQASGMSADESIQLPCFSLDREALTNISVIIAHLEKVKVLSENTVDTSWVIRWLTNISCFNPLNLNISVPGNTDESYDCKVFVLTVLKQFSNCMAELQAKDNTTC", "values": [{"measurement": "responsive neurons as a percentage of total mouse DRG neurons", "setting": "mouse DRG neurons", "result": "approximately 5%"}]}, {"molecule": "IL-5: recombinant murine IL-5 (Peprotech) (protein, UniProt P04401 21-133, looked up) Interleukin-5: MEIPMSTVVKETLTQLSAHRALLTSNETMRLPVPTHKNHQLCIGEIFQGLDILKNQTVRGGTVEMLFQNLSLIKKYIDRQKEKCGEERRRTRQFLDYLQEFLGVMSTEWAMEG", "values": [{"measurement": "calcium response of DRG neurons to stimulation", "setting": "mouse DRG neurons", "result": "no responses; also recorded: does not activate"}]}, {"molecule": "IL-13: recombinant murine IL-13 (Peprotech) (protein, UniProt P20109 19-131, looked up) Interleukin-13: APGPVPRSVSLPLTLKELIEELSNITQDQTPLCNGSMVWSVDLAAGGFCVALDSLTNISNCNAIYRTQRILHGLCNRKAPTTVSSLPDTKIEVAHFITKLLSYTKQLFRHGPF", "values": [{"measurement": "responsive neurons as a percentage of total mouse DRG neurons", "setting": "mouse DRG neurons", "result": "3.3±0.8", "unit": "%"}, {"measurement": "calcium response of DRG neurons to stimulation", "setting": "mouse DRG neurons", "result": "rapid rise of intracellular calcium in a subset of neurons"}, {"measurement": "cytokine-responsive neurons that also responded to IL-31 or histamine", "setting": "mouse DRG neurons", "result": 75.0, "unit": "%"}]}]}
